Measurements as given in patent publication US20160257651A1, “NOVEL COMPOUND WITH ANTIBACTERIAL ACTIVITY” (priority 2013, published 2016).
≈ marks a conversion by molar mass, not a printed value. Like-named read-outs stand apart in the source and are kept apart here.

Assays:
[1] = test system: E. coli strain 1708; assay: Antibacterial activity against Escherichia coli
From the text: (§9) The numerical values in the tables indicate MIC (mg/L), Res means resistant bacterium, and Sus means susceptible bacterium.
(§10) Antibacterial activities against Escherichia coli of the compounds shown Table 19 were examined by the following method.
(§11) After completion of the culture, the cells were suspended in fresh TBS to prepare a cell suspension showing an absorbance of 0.3 at 578 nm.

[2] = test system: S. aureus FDA209P (ATCC 6538P); assay: microbe, parasite or virus in culture; format: cell-based, Staphylococcus aureus; settings: quinolone-susceptible MSSA, ParC 80S, GyrA 84S
Method: (§1) Then, the cell suspension was diluted 500 times with CAMHB mentioned above.

[3] = test system: S. aureus Mu50; assay: microbe, parasite or virus in culture; format: cell-based, Staphylococcus aureus; settings: for MIC: S. aureus Mu50, quinolone-resistant MRSA, ParC S80F, GyrA S84L
Method: as §1

[4] = test system: E. coli strain 1709 plus PABN; assay: Antibacterial activity against Escherichia coli in combination with efflux pump inhibitor PAβN; settings: E coli plus PABN 40 mg/L, strain 1709, Quinolone Sus
From the text: as §9, §10, §11

[5] = test system: E. coli strain 1709; assay: Antibacterial activity against Escherichia coli
From the text: as §9, §10, §11

[6] = test system: E. coli strain 1708 plus PABN; assay: Antibacterial activity against Escherichia coli in combination with efflux pump inhibitor PAβN; settings: E coli plus PABN 40 mg/L, strain 1708, Quinolone Res
From the text: as §9, §10, §11

[7] = test system: E. faecalis 36-15722; assay: MIC against Enterococcus bacteria; format: cell-based, Enterococcus faecalis; settings: E. faecalis 36-15722, quinolone-resistant, ParC 80Ile, GyrA 84Ile
Method: (§2) Antibacterial activities of the compound J-131CP against Enterococcus bacteria (Enterococcus faecium and Enterococcus faecalis) were examined by the following methods.
(§3) The compound J-131CP and quinolones were prepared in the same manner as that of Test Example 1-1.
(§4) Cell suspensions were prepared in the same manner as that of Test Example 1-1 described in the section of measurement of MIC in Test Example 1-1, except that the Enterococcus bacterium strains mentioned in Table 8 were used instead of Staphylococcus aureus, and MICs of the compound J-131CP and quinolones as control were determined for the strains in the same manner as that of Test Example 1-1 described in the section of measurement of MIC in Test Example 1-1. In Table 8, the amino acid substitution mutations in QRDR of the strains are underlined.

[8] = test system: E. faecalis NCTC12201; assay: MIC against Enterococcus bacteria; format: cell-based; settings: quinolone-susceptible
Method: as §2, §3, §4

[9] = test system: S. pneumoniae KBSP11; assay: MIC against pneumococcus, CAMHB with 5 mass % LHB; format: cell-based, Streptococcus pneumoniae
Method: (§5) The S. pneumoniae strains used for this test belong to any one of the categories of penicillin-susceptible pneumococcus (penicillin-susceptible Streptococcus pneumoniae, PSSP), penicillin-intermediate pneumococcus (penicillin-intermediate Streptococcus pneumoniae, PISP), and penicillin-resistant pneumococcus (penicillin-resistant Streptococcus pneumoniae, PRSP).
(§6) The lysed horse blood was prepared by adding sterilized water to horse sterile defibered blood (produced by Nippon Bio-Supp. Center) at a ratio of 1:1, subjecting the mixture to freezing and thawing 5 times, then centrifuging the mixture twice at 10,000 rpm for 20 minutes, and filtering the supernatant through a filter.
(§7) The S. pneumoniae strains mentioned in Table 11 were each cultured overnight at 37° C. on a blood agar medium as stationary culture. The blood agar medium was prepared by adding 5 mass % ovine sterile defibered blood (produced by Nippon Bio-Supp. Center) to a heart infusion agar medium (produced by EIKEN CHEMICAL). Each S. pneumoniae strain cultured overnight at 37° C. as stationary culture was further subcultured overnight at 37° C. on fresh blood agar medium as stationary culture. After completion of the culture, cells of each pneumococcus strain were collected with a swab, and suspended in physiological saline, and the suspension was adjusted with physiological saline to show absorbance of 0.08 to 0.13 at 625 nm as measured with an absorbance meter (produced by Amersham), and further diluted 200 times with CAMHB containing 5 mass % LHB.
(§8) In Table 11, the amino acid substitution mutations in QRDR of the strains are underlined.

[10] = test system: S. pneumoniae BCLSP37; assay: MIC against pneumococcus, CAMHB with 5 mass % LHB; format: cell-based, Streptococcus pneumoniae; settings: quinolone-resistant, ParC 79Phe, GyrA 85Lys
Method: as §5, §6, §7, §8

[11] = test system: E. faecium RPR2; assay: MIC against Enterococcus bacteria; format: cell-based, Enterococcus faecium
Method: as §2, §3, §4

[12] = test system: E. faecium NCTC12202; assay: MIC against Enterococcus bacteria; format: cell-based, Enterococcus faecium
Method: as §2, §3, §4

[13] = Staphylococcus aureus, ATCC 6538P / FDA209P / MSSA, read-out: MIC
[14] = Enterococcus faecalis, 3615722, read-out: MIC
[15] = Enterococcus faecalis, NCTC 12201 / VRE
[16] = Streptococcus pneumoniae, BCLSP37, S. pneumoniae BCLSP37, PSSP, read-out: MIC
[17] = Enterococcus faecium, NCTC 12202 / VRE

Row | Compound | MIC [1] | MIC [2, 13] | MIC ([3]; Staphylococcus aureus, MRSA) | MIC [4] | MIC [5] | MIC [6] | MIC [7, 14] | MIC [8, 15] | MIC ([9]; Streptococcus pneumoniae, PRSP) | MIC [10, 16] | MIC ([11]; Enterococcus faecium, RPR2) | MIC [12, 17] | also measured
1 | O=c1cc(CO)c2cc(F)c(-c3ccccc3)cc2n1C1CC1 [J-168] | 128 µg/mL (≈ 414 µM) | 2 µg/mL (≈ 6.47 µM) | 2 µg/mL (≈ 6.47 µM) | ≦0.06 mg/L | 16 µg/mL (≈ 51.7 µM) | 0.5 µg/mL |  |  |  |  |  |  | 
2 | NOCc1cc(=O)n(C2CC2)c2cc(-c3ccc(O)cc3)c(F)cc12 [J-174] | 128 µg/mL (≈ 376 µM) | 2 µg/mL (≈ 5.88 µM) | 1 µg/mL (≈ 2.94 µM) | 0.5 µg/mL | 64 µg/mL (≈ 188 µM) | 4 µg/mL | 8 µg/mL (≈ 23.5 µM) | 4 µg/mL (≈ 11.8 µM) |  |  |  |  | 
3 | O=c1cc(CO)c2cc(F)c(-c3ccc(O)cc3)c(F)c2n1C1CC1 [J-155] | 128 µg/mL (≈ 373 µM) | 0.25 µg/mL (≈ 0.728 µM) | 0.13 µg/mL (≈ 0.379 µM) | ≦0.06 mg/L | 8 µg/mL (≈ 23.3 µM) | 0.5 µg/mL | 1 µg/mL (≈ 2.91 µM) | 1 µg/mL (≈ 2.91 µM) | 12 µg/mL (≈ 35 µM) | 1 µg/mL (≈ 2.91 µM) | 8 µg/mL (≈ 23.3 µM) | 16 µg/mL (≈ 46.6 µM) | 
4 | O=c1cc(CO)c2cc(F)c(-c3ccc(O)c(O)c3)cc2n1C1CC1 [J-176] | 128 µg/mL (≈ 375 µM) | 2 µg/mL (≈ 5.86 µM) | 1 µg/mL (≈ 2.93 µM) |  | 32 µg/mL (≈ 93.7 µM) |  | 2 µg/mL (≈ 5.86 µM) | 2 µg/mL (≈ 5.86 µM) | 4 µg/mL (≈ 11.7 µM) | 8 µg/mL (≈ 23.4 µM) | 4 µg/mL (≈ 11.7 µM) | 8 µg/mL (≈ 23.4 µM) | 
5 | O=c1cc(CO)c2ccc(-c3ccc(O)cc3)c(F)c2n1C1CC1 [J-154, 1-cyclopropyl-8-fluoro-4-(hydroxymethyl)-7-(4-hydroxyphenyl)hydroquinolin-2-one] |  | 0.5 µg/mL (≈ 1.54 µM) | 0.25 µg/mL (≈ 0.768 µM) |  |  |  | 2 µg/mL (≈ 6.15 µM) | 4 µg/mL (≈ 12.3 µM) | 8 µg/mL (≈ 24.6 µM) | 8 µg/mL (≈ 24.6 µM) | 8 µg/mL (≈ 24.6 µM) | 16 µg/mL (≈ 49.2 µM) | MIC ratio (Mu50 MIC/FDA209P MIC) ([3]; MIC for S. aureus Mu50 / MIC for S. aureus FDA209P): 0.5
6 | Nc1ccc(-c2cc3c(cc2F)c(CO)cc(=O)n3C2CC2)cc1 [J-166] | 128 µg/mL (≈ 395 µM) |  |  | ≦0.06 mg/L | 8 µg/mL (≈ 24.7 µM) | 0.5 µg/mL |  |  |  |  |  |  | MIC ([9]; S. pneumoniae KBSP11, PRSP, quinolone-susceptible): 2 µg/mL (≈ 6.17 µM); MIC ([10]; S. pneumoniae BCLSP37, PSSP): 2 µg/mL (≈ 6.17 µM); MIC ([11]; E. faecium RPR2, quinolone-resistant, ParC 82Ile, GyrA 84Ile 88Lys): 8 µg/mL (≈ 24.7 µM); MIC ([12]; E. faecium NCTC12202, VRE, quinolone-susceptible): 16 µg/mL (≈ 49.3 µM); MIC [2]: 1 µg/mL (≈ 3.08 µM); MIC [3]: 1 µg/mL (≈ 3.08 µM); MIC [7]: 2 µg/mL (≈ 6.17 µM); MIC ([8]; E. faecalis NCTC12201, VRE): 1 µg/mL (≈ 3.08 µM)
